From US20090007283A1, “Transgenic Rodents Selectively Expressing Human B1 Bradykinin Receptor Protein” (priority 2003, published 2009) come the findings set out here.

By Ki is commonly meant the dissociation constant of the complex between target and ligand, obtained from inhibition or displacement. A high value points to lower affinity.

The target in assay [1] is T1, human B1 bradykinin receptor (human) (UniProt P46663).
T1 sequence (looked up): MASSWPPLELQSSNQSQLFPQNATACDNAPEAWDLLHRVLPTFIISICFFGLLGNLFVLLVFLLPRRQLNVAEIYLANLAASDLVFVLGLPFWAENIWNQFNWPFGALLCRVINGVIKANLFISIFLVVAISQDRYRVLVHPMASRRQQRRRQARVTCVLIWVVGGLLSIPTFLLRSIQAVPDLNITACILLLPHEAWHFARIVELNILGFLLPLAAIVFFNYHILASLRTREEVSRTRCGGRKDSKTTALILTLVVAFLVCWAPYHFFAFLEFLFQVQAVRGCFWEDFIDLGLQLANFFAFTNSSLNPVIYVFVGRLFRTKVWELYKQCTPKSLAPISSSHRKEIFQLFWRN
Briefly: cell-based or functional assay.

The next assay concerns the target T2, human B1 receptor (Homo sapiens, UniProt P46663).
T2 construct: from tissue; host or cells: stomach fundus and ileum of line 13 mice homozygous for the human B1 receptor knock-in (targeting vector pB1R-KI2)
T2 sequence (P46663 1-353): T1 sequence (looked up)
Briefly: Functional assay: DAK-induced contraction of fundus and ileum tissue from line 13 mice homozygous for the human B1 receptor gene. On the procedure: A functional assay was carried out twice on homozygous human b1 mouse fundus and ileum tissue to evaluate its B1 receptor activity in line 13, a mouse line homozygous for replacement of the mouse B1 gene with the human B1 receptor gene. A selective human B1 receptor compound (Compound #1) was tested for antagonistic activity against the receptor from these knock-in mice. Specifically, two homozygous mice were euthanized with CO2. Their stomach and ileum were removed and the fundic portion was divided in half by cutting an incision along the greater curvature. A medial longitudinal strip about 1 mm×0.6 cm was obtained by making cut along the midline incision. Two fundic strips were obtained from each stomach. The ileum was cut about 4 cm from the cecum. Each ileum is divided into two pieces and whole muscle was used. […] Each piece of ileum was tied one end to a glass rod with silk 4-0 and the other end to the Statham—Gould force transducer. One gram tension was applied to each tissue and contraction was recorded by a Hewlett-Packard 7758 recorder. All tissues receive 50 mM KCl at the end of 1 hr equilibrium for maximal response. The tissues are washed every 20 min for one hour. 30 nM of Compound #1 was added to two treated ileum or two treated fundus tissues and incubated for one hour. 0.1 μM M422 and 1 μM thiorphan are added to the bath 30 min before DAK dosing. A cumulative dose-response of DAK (10-^10M to 3×10^−5M) is carried out after pre-incubation.
DAK is diluted in Krebs solution. Full log dilution is made by adding 25 μl in […]. Compound #1 is diluted in DMSO.

Another assay deals with T3, B1 receptor (Mus musculus, UniProt Q61125).
T3 construct: from tissue; host or cells: stomach fundus of wild type mice
T3 sequence (Q61125 1-334): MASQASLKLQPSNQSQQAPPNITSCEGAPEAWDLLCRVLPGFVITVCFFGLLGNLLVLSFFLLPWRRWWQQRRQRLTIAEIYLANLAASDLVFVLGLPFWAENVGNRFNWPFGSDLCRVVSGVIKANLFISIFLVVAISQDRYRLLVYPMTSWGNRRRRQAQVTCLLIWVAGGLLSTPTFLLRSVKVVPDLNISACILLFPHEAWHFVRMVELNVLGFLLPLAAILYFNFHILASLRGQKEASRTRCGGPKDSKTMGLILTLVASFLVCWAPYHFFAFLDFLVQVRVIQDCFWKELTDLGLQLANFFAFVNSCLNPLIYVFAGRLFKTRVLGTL
Briefly: DAK response of the stomach fundus in wild type mice. An excerpt:
This phenotype is detailed herein via a functional assay showing the effect of a selective antagonist of the human B1 receptor. […] Therefore, the transgenic mice of the present invention, including but not limited to the humanized mice exemplified herein, will be useful to evaluate the efficacy of human selective compounds in both in vitro and in vivo assays. The addition of exogenous agonist, or the natural release of endogenous agonist resulting from a stimulus, may activate the human receptor. The ability of human selective compounds to antagonize the activation of the receptor will permit a determination of the efficacy of the compound in these animal models. To this end, the humanized B1 transgenic models as described herein will be useful to screen any potential modulator of receptor activity (e.g., antagonists or agonists), including but not necessarily limited to peptides, proteins, or non-proteinaceous organic or inorganic molecules. The transgenic animals of the present invention provide for improved models to evaluate the efficacy of human selective compounds in both in non-human animal models, such as rodents humanized for expression of the B1 receptor. […] Even if successful, the properties of compounds selective for humans could not be assessed. […]

The target in a further assay is T4, hb1 (Homo sapiens, UniProt P46663).
T4 sequence (P46663 1-353): T1 sequence (looked up)
Nature of the assay: binding data, hb1. As to conditions: human B1 receptor; kind of constant not given.

The target of a further assay is T5, rat b1 (Rattus norvegicus, UniProt P97583).
T5 sequence (P97583 1-337): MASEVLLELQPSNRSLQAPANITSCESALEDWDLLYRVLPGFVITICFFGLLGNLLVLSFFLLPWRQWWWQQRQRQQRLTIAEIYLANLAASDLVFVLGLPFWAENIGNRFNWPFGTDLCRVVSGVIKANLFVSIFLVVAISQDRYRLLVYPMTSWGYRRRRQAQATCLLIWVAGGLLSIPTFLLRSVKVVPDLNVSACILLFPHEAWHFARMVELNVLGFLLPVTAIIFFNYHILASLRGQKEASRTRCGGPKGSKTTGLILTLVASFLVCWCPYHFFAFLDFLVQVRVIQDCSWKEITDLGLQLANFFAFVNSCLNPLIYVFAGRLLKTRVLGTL
Nature of the assay: binding data, rat b1. As to conditions: rat B1 receptor; kind of constant not given.

On to “des-Arg^10 kallidin (from UniProt P01042 380-388) (peptide)”, for which, in assay [1], the EC50 of des-arg^10-kallidin, contraction of homozygous mouse ileum, Control (n = 2), Experiment #1 is 4 nM.

On to `O=C(C[C@@H]1C(=O)NCCN1S(=O)(=O)c1cccc2c1NCCC2)NCCc1ccc(C2=NCCN2)cc1` [Compound #1], for which the Kb at human B1 receptor (homozygous mouse fundus, Experiment #2 combined with Experiment #1 (n = 4)) amounted to 0.25 nM; at human B1 receptor (homozygous mouse fundus, line 13, Experiment #1, 30 nM antagonist vs DAK), 0.27 nM; on human B1 receptor (homozygous mouse fundus, line 13, Experiment #2, 30 nM antagonist vs DAK), 0.23 nM; at human B1 receptor (homozygous mouse ileum, Experiment #2 combined with Experiment #1 (n = 4)), 0.09 nM; on human B1 receptor (homozygous mouse ileum, line 13, Experiment #1, 30 nM antagonist vs DAK) it was 0.11 nM; at human B1 receptor (homozygous mouse ileum, line 13, Experiment #2, 30 nM antagonist vs DAK), 0.21 nM. The “sensitivity of the DAK response to the human B1 selective antagonist” value on B1 receptor was “insensitive”. The Ki is 0.04 nM at hb1 and 591 nM on rat b1.

Turning to “des-Arg^10 kallidin [des-arg^10-kallidin, reference compound]”, the DAK contractile response entry on human B1 receptor (Line #13 homozygous mice, compared with wild type) is on record as “full DAK contractile responses”.
